# Experimental data from patent US20110218199A1, “PYRIDONEAMIDE DERIVATIVES, THEIR MANUFACTURE AND USE AS PHARMACEUTICAL AGENTS” (priority 2007, published 2011).
# System: HCT 116 cells
# Test: CellTiter-Glo assay in HCT 116 cells (antiproliferative activity)
# Assay type: cell-based
# Conditions: Homo sapiens, HCT-116, 120 h, CellTiter-Glo cell viability, HCT 116 human colon carcinoma, 5 days (120 h) incubation
# Excerpt: Antiproliferative Activity:
# CellTiter-Glo™ Assay in HCT 116 Cells:
# The CellTiter-Glo™ Luminescent Cell Viability Assay (Promega) is a homogeneous method of determining the number of viable cells in culture based on quantitation of the ATP present, which signals the presence of metabolically active cells.
# HCT 116 cells (human colon carcinoma, ATCC-No. CCl-247) were cultivated in RPMI 1640 medium with GlutaMAX• I (Invitrogen, Cat-No. 61870-010), 5% Fetal Calf Serum (FCS, Sigma Cat-No. F4135 (FBS)); 100 Units/ml penicillin/100 μg/ml streptomycin (=Pen/Strep from Invitrogen Cat. No. 15140). For the assay the cells were seeded in 384 well plates, 1000 cells per well, in the same medium. The next day the test compounds were added in various concentrations ranging from 30 μM to 0.0015 μM (10 concentrations, 1:3 diluted). After 5 days the CellTiter-Glo™ assay was done according to the instructions of the manufacturer (CellTiter-Glo™ Luminescent Cell Viability Assay, from Promega). In brief: the cell-plate was equilibrated to room temperature for approximately 30 minutes and than the CellTiter-Glo™ reagent was added. The contents were carefully mixed for 15 minutes to induce cell lysis. After 45 minutes the luminescent signal was measured in Victor 2, (scanning multiwell spectrophotometer, Wallac).
# 1st. Day: • Medium: RPMI 1640 with GlutaMAX™ I (Invitrogen, Cat-Nr. 61870), 5% FCS (Sigma Cat.-No. F4135), Pen/Strep (Invitrogen, Cat No. 15140). • HCT116 (ATCC-No. CC1-247): 1000 cells in 60 μl per well of 384 well plate (Greiner 781098, μClear-plate white) • After seeding incubate plates 24 h at 37° C., 5% CO2
# 2nd. Day: Induction (Treatment with Compounds, 10 Concentrations):
# In order to achieve a final concentration of 30 μM as highest concentration 3.5 μl of 10 mM compound stock solution were added directly to 163 μl media. Then step e) of the dilution procedure described below, was followed.
# In order to achieve the second highest to the lowest concentrations, a serial dilution with dilution steps of 1:3 was followed according to the procedure (a-e) as described here below: • a) for the second highest concentration add 10 μl of 10 mM stock solution of compound to 20 μl dimethylsulfoxide (DMSO) • b) dilute 8×1:3 (always 10 μl to 20 μl DMSO) in this DMSO dilution row (results in 9 wells with concentrations from 3333.3 μM to 0.51 μM) • c) dilute each concentration 1: 47.6 (3.5 μl compound dilution to 163 μl media) • d) add 10 μl of every concentration to 60 μl media in the cell plate resulting in final concentration of DMSO: 0.3% in every well and resulting in 10 final concentration of compounds ranging from 30 μM to 0.0015 μM. • Each compound is tested in triplicate. • Incubate 120 h (5 days) at 37° C., 5% CO2 […]
# Add 30 μl CellTiter-Glo™ Reagent (prepared from CellTiter-Glo™ Buffer and CellTiter-Glo™ Substrate (lyophilized) purchased from Promega) per well, shake 15 minutes at room temperature incubate further 45 minutes at room temperature without shaking
# Victor 2 scanning multiwell spectrophotometer (Wallac), Luminescence mode (0.5 sec/read, 477 nm) Determine IC50 using a non-linear curve fit (XLfit software (ID Business Solution Ltd., Guilford, Surrey, UK))
row,Structure (SMILES),IC50 [µM]
1,"O=C(Nc1ccc(N2CCOCC2)c(F)c1)c1c(NCc2ccccn2)cc[nH]c1=O [Example 1, 2-Oxo-4-[(pyridin-2-ylmethyl)-amino]-1,2-dihydro-pyridine-3-carboxylic acid(3-fluoro-4-morpholin-4-yl-phenyl)-amide]",7.46
2,"CN1CCN(c2ccc(NC(=O)c3c(NCCc4ccccc4)cc[nH]c3=O)cc2)CC1 [Example 6ad, 2-Oxo-4-phenethylamino-1,2-dihydro-pyridine-3-carboxylic acid [4-(4-methyl-piperazin-1-yl)-phenyl]-amide]",0.5 to 15
3,"CC(CNc1cc[nH]c(=O)c1C(=O)Nc1ccc(N2CCN(C)CC2)cc1)c1ccccc1 (centres unmarked) [Example 6ae, 2-Oxo-4-(2-phenyl-propylamino)-1,2-dihydro-pyridine-3-carboxylic acid [4-(4-methyl-piperazin-1-yl)-phenyl]-amide]",0.5 to 15
4,"CC(CNc1cc[nH]c(=O)c1C(=O)Nc1cccc(N2CCOCC2)c1)c1ccccc1 (centres unmarked) [Example 6g, 2-Oxo-4-(2-phenyl-propylamino)-1,2-dihydro-pyridine-3-carboxylic acid (3-morpholin-4-yl-phenyl)-amide]",0.5 to 15
5,"COc1ccc(NC(=O)c2c(NCCc3ccccc3)cc[nH]c2=O)cc1N1CCN(C)CC1 [Example 6i, 2-Oxo-4-phenethylamino-1,2-dihydro-pyridine-3-carboxylic acid [4-methoxy-3-(4-methyl-piperazin-1-yl)-phenyl]-amide]",0.5 to 15
6,"COc1ccc(NC(=O)c2c(NCC(C)c3ccccc3)cc[nH]c2=O)cc1N1CCN(C)CC1 (centres unmarked) [Example 6j, 2-Oxo-4-(2-phenyl-propylamino)-1,2-dihydro-pyridine-3-carboxylic acid [4-methoxy-3-(4-methyl-piperazin-1-yl)-phenyl]-amide]",0.5 to 15
7,"COc1ccc(NC(=O)c2c(NC3CCCCC3)cc[nH]c2=O)cc1N1CCN(C)CC1 [Example 6m, 4-Cyclohexylamino-2-oxo-1,2-dihydro-pyridine-3-carboxylic acid [4-methoxy-3-(4-methyl-piperazin-1-yl)-phenyl]-amide]",0.5 to 15
8,"COc1ccc(NC(=O)c2c(NCCc3cccc(Cl)c3)cc[nH]c2=O)cc1N1CCN(C)CC1 [Example 6o, 4-[2-(3-Chloro-phenyl)-ethylamino]-2-oxo-1,2-dihydro-pyridine-3-carboxylic acid [4-methoxy-3-(4-methyl-piperazin-1-yl)-phenyl]-amide]",0.5 to 15
9,"O=C(Nc1ccc(N2CCOCC2)cc1)c1c(NCc2ccccn2)cc[nH]c1=O [Example 6r, 2-Oxo-4-[(pyridin-2-ylmethyl)-amino]-1,2-dihydro-pyridine-3-carboxylic acid (4-morpholin-4-yl-phenyl)-amide]",0.5 to 15
10,"CSc1cccc(NC(=O)c2c(NCc3ccccn3)cc[nH]c2=O)c1 [Example 6s, 2-Oxo-4-[(pyridin-2-ylmethyl)-amino]-1,2-dihydro-pyridine-3-carboxylic acid (3-methylsulfanyl-phenyl)-amide]",0.5 to 15
11,"O=C(Nc1cccc(CN2CCCCC2)c1)c1c(NCCc2ccccc2)cc[nH]c1=O [Example 6t, 2-Oxo-4-phenethylamino-1,2-dihydro-pyridine-3-carboxylic acid (3-piperidin-1-ylmethyl-phenyl)-amide]",0.5 to 15
12,"CC(CNc1cc[nH]c(=O)c1C(=O)Nc1cccc(CN2CCCCC2)c1)c1ccccc1 (centres unmarked) [Example 6u, 2-Oxo-4-(2-phenyl-propylamino)-1,2-dihydro-pyridine-3-carboxylic acid (3-piperidin-1-ylmethyl-phenyl)-amide]",0.5 to 15
13,"CC(CNc1cc[nH]c(=O)c1C(=O)Nc1cccc(CN2CCCC2)c1)c1ccccc1 (centres unmarked) [Example 6v, 2-Oxo-4-(2-phenyl-propylamino)-1,2-dihydro-pyridine-3-carboxylic acid (3-pyrrolidin-1-ylmethyl-phenyl)-amide]",0.5 to 15
14,"O=C(Nc1cccc(CN2CCCC2)c1)c1c(NCCc2ccccc2)cc[nH]c1=O [Example 6w, 2-Oxo-4-phenethylamino-1,2-dihydro-pyridine-3-carboxylic acid (3-pyrrolidin-1-ylmethyl-phenyl)-amide]",0.5 to 15

# Target: T1, FAK Kinase Domain (KD) (Homo sapiens, UniProt Q05397)
# T1 construct: FAK Kinase Domain (KD) from baculo Sf9 was used; made in house; host or cells: baculovirus / Sf9 insect cells
# T1 sequence (Q05397 422-680 limits assumed, species assumed): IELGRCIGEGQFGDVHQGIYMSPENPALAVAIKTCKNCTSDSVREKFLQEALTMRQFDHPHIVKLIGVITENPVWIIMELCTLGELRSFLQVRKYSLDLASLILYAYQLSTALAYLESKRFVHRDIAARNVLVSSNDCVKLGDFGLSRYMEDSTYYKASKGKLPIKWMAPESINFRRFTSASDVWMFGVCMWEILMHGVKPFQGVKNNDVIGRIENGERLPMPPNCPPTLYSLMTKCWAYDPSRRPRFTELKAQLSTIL
# Test: IC50 determination for inhibitors of FAK (ELISA-type assay)
# Assay type: biochemical
# Conditions: FAK kinase domain from baculo Sf9, biotinylated FAK-397 peptide, 10 μM ATP, 30 min, read-out: IC50 FAK inhibition
row,Structure (SMILES),IC50 [nM]
1,"O=C(Nc1ccc(N2CCOCC2)c(F)c1)c1c(NCc2ccccn2)cc[nH]c1=O [Example 1, 2-Oxo-4-[(pyridin-2-ylmethyl)-amino]-1,2-dihydro-pyridine-3-carboxylic acid(3-fluoro-4-morpholin-4-yl-phenyl)-amide]",143
2,"O=C(Nc1cccc(N2CCCC2)c1)c1c(NC[C@@H](O)c2ccccc2)cc[nH]c1=O [Example 2d, 4-((S)-2-Hydroxy-2-phenyl-ethylamino)-2-oxo-1,2-dihydro-pyridine-3-carboxylic acid (3-pyrrolidin-1-yl-phenyl)-amide]",93
3,"COc1ccc(NC(=O)c2c(NCCc3cccnc3)cc[nH]c2=O)cc1N1CCN(C)CC1 [Example 6aa, 2-Oxo-4-(2-pyridin-3-yl-ethylamino)-1,2-dihydro-pyridine-3-carboxylic acid [4-methoxy-3-(4-methyl-piperazin-1-yl)-phenyl]-amide]",216
